Experiments:
[1] = test system: human melanoma (MDA-MB-435 cells); assay: Melanoma growth in SCID mice bearing MDA-MB-435 xenograft; type: in vivo, mouse; conditions: 5 days-on/2 days-off; for tumor growth (volume): from Day 16
Experimental: In experiments with SCID mice, 5 week old CB17/lcr-Prkdcscid/lcrlcoCrl mice (sourced from Charles River Laboratories, USA) were inoculated s.c. with human MDA-MB-435 cells (2.5×10^6 cells/animal in 100 μl PBS) in the third mammary fat pad on Day 0. These cells were also sourced from ATCC. BT2 was suspended at 9.6 mg/ml in vehicle (saline containing 0.5% (v/v) Tween 80 and 0.01% (v/v) DMSO) and sonicated. Vehicle or BT2 were administered i.p. or intratumorally (i.t.) 20 mg/kg (i.t.) or 200 mg/kg (i.p.), once a day on a 5 days-on/2 days-off schedule. Treatment commenced on Day 16 and ended on Day 43. Tumor growth and body weight data is sourced from the animal study described in Li et al (Li et al., 2019) with the same vehicle group.
(§1) Tumors were measured by length and width in mm twice per week for MDA-MB-435 in SCID mice and by length, width and height in mm once per day for B16F10 in C57BL/6J mice. Tumor volumes were calculated using formula V=(L×W×H×π)/6 (B16F10) or V=L×W×W/2 (MDA-MB-435). If a second tumor was detected in an animal, both tumor volumes were measured and their volumes combined. Animal protocols were approved by the Explora Biolabs' Institutional Animal Care and Use Committee (IACUC) and the UNSW Animal Care and Ethics Committee.
BT2's ability to inhibit melanoma growth was investigated in a murine xenograft model. Immunocompromised SCID mice (C.B.17/lcr-Prkdcscid/lcrlcoCrl) bearing human melanoma (MDA-MB-435 cells, also mutant BRAF^V600E) were treated with 20 mg/kg BT2 intratumorally (i.t.) on a 5 days-on/2 days-off regime (FIG. 5A).
To assess the effect of BT2 when delivered systemically (rather than locally) in the same immunodeficient mouse model, C.B.17 SCID mice bearing s.c. MDA-MB-435 tumors were given BT2 200 mg/kg or vehicle i.p. once a day on a 5 days-on/2 days-off schedule. Treatment commenced on Day 16 (FIG. 7A).

B16F10 melanoma = assay: Melanoma growth in C57BL/6J mice bearing s.c. B16F10 tumors; type: in vivo, mouse
Experimental: Melanoma growth studies in mice. Six-to-eight week old C57BL/6J mice (sourced from Australian Resource Centre, Perth) were inoculated subcutaneously (s.c.) with B16F10 cells (1×10^5 cells/mouse in 100 μl DMEM containing 10% FBS with 50% Matrigel). InVivoPlus anti-mouse PD-1 (CD279) (BioXCell, BP0033-2) or InVivoPlus polyclonal Armenian hamster IgG (Bio X Cell, BP0091) was administered intraperitoneally (i.p.) (100 μg) twice a week. Treatment commenced on Day 7.
Alternatively, BT2 was suspended at 10 mg/ml in vehicle (saline containing 0.5% (v/v) Tween 80 and 0.01% (v/v) DMSO) and sonicated prior to administration. Vehicle or BT2 was administered i.p. (20 ml/kg and 200 mg/kg, respectively) once a day on a 5 days-on/2 days-off schedule. Treatment commenced when tumors were palpable on Day 5.
as §1
The preceding xenograft studies showing anti-tumor effects in immunocompromised mice when BT2 is delivered intratumorally (i.t.) but not systemically (i.p.) led the inventors to hypothesize that BT2 could rely upon an active immune system in order to effect tumor growth inhibition. Therefore, the effect of BT2 was tested in an immunocompetent mouse model of melanoma growth using B16F10 melanoma. […]
To assess the effect of BT2 in the same model, C57BL/6J mice bearing s.c. B16F10 tumors were administered with BT2 or vehicle (200 mg/kg or 20 ml/kg, respectively, i.p.) once a day on a 5 days-on/2 days-off schedule. […] Tumor size on Day 17 measured using callipers (FIG. 10A) correlated with isolated weighed tumors (FIG. 10B).

A375 cells = assay: Migration assay (scratch), A375; type: cell-based, human; conditions: 1 μM, 24 h, with greater potency than SCH772984
Experimental: Migration assays. Cells were grown in medium containing 10% FBS in 6-well plates. The following day the cells were scratched with a sterile toothpick, washed with PBS, and incubated in medium containing 10% FBS and vehicle, BT2 or SCH772984 at 1 μM. At 0, 24 h and 48 h the cells were photographed under a 4× objective using an Olympus CKX41 microscope. To assess the effect of BT2 on melanoma cell migration, A375 and MeWo cells were incubated with 1 μM of BT2 or SCH772984, and A375 and MeWo migration into the denuded zone was quantified after 24 or 48 h, respectively.

endothelial cells = conditions: shown previously, cited from earlier work
[2] = MDA-MB-435, 20 mg/kg i.t. once a day

## CCOC(=O)Nc1ccc2c(c1)C(=O)N(CC)c1ccccc1O2 [BT2, (10-ethyl-11-oxo-10,11-dihydro-dibenzo[b,f][1,4]oxazepin-2-yl)-carbamic acid ethyl ester]
[1]; [2]
  body weight: no adverse effect on body weight
  tumor growth (volume): caused growth inhibition
[1]; MDA-MB-435, 200 mg/kg i.p. once a day
  tumor growth (volume): no inhibition was observed
B16F10 melanoma; C57BL/6J mice, 200 mg/kg i.p. once a day, 5 days-on/2 days-off, from Day 5
  B16F10 tumor growth (volume): significant B16F10 growth inhibition from Day 9
B16F10 melanoma; C57BL/6J mice, B16F10, 200 mg/kg i.p. once a day, 5 days-on/2 days-off
  body weight: no adverse effect on body weight
B16F10 melanoma; Day 17, 200 mg/kg i.p., vehicle 75%
  mice with tumor size exceeding 500 mm^3 (Kaplan-Meier analysis): none
A375 cells
  migration into the denuded zone: suppressed melanoma migration
Endothelial cells; endothelial cells
  ERK phosphorylation and expression of FosB/ΔFosB and VCAM-1, and VEGF: inhibit
Endothelial cells
  endothelial cell proliferation and migration, angiogenesis and wound repair: inhibit

— patent publication US20250352555A1, “METHOD OF INCREASING IMMUNE CELL ACTIVATION AND/OR TREATING CANCER USING DIBENZOXAZEPINONES” (VASCULAR THERAPEUTICS PTY LTD, priority 2022, published 2025)
